Measurements reported in patent US12377104B1, “Methods for treating a fatty liver disease” (Madrigal Pharmaceuticals, Inc., priority 2024, dated 2025).
“And” between values parts separate entries of the source, which are not always exact repeats. Equal entries are not always repeated.

System: adults with biopsy-confirmed NASH
Test: MAESTRO-NASH: lipids, lipoproteins and lipid particles
Assay type: in vivo, human
Conditions: 80 mg; for ApoB, Least Squares Mean % CFB / ApoB, Least Squares Mean % CFB Difference from PBO / LDL-C, Least Squares Mean % CFB / LDL-C, Least Squares Mean % CFB Difference from PBO: baseline LDL-C >100 mg/dL; for Lp(a), LS mean % CFB / Lp(a), LS mean % CFB difference from PBO: baseline Lp(a) >10 nmol/L; for Triglycerides, LS mean % CFB / Triglycerides, LS mean % CFB difference from PBO: baseline triglycerides >150 mg/dL
Procedure: Within the study, we provided analyses based on an analysis of covariance (ANCOVA) model after having performed single imputation for LDL-C as described in the statistical analysis plan (SAP). The ANCOVA model estimated least-squares means using treatment and baseline LDL-C as covariate.
To this end, the Week 24 LDL-C assessment and assessments at any visit in which LDL-C is measured (Weeks 4, 12, 16, 20, 24, 28, 32, 36, 40, 44, 48, and 52) that has been impacted by kit shortage at the prior visit (unavailability of […] (IP) during the 4 weeks preceding the visit due to the COVID-19 pandemic as indicated on the electronic case report form (eCRF)), were considered missing and were imputed from an unaffected assessment at surrounding visits or using data from subjects unaffected by this intercurrent event as described in Section 11.2 of the SAP. In summary, single imputation utilizing adjacent and valid […] measurements were imputed.
For missing lipid data that are still missing after the single imputation approach described, those missing lipid data were imputed using the non-missing lipid values (including the singly imputed data) based on missing at random (MAR)-based (MI). When applying the MAR-based […], data were imputed separately by randomized treatment group and baseline stratification factors.

Q: How did the “Apolipoprotein B level, difference from placebo” value (wk 24) turn out when CC(C)c1cc(Oc2c(Cl)cc(-n3nc(C#N)c(=O)[nH]c3=O)cc2Cl)n[nH]c1=O [Resmetirom, 2-(3,5-dichloro-4-((5-isopropyl-6-oxo-1,6-dihydropyridazin-3-yl)oxy)phenyl)-3,5-dioxo-2,3,4,5-tetrahydro-1,2,4-triazine-6-carbonitrile] was run?
A: −17.2 percentage points

Q: What about the “Apolipoprotein B level, least-squares mean percent change from baseline” value (wk 24) of the same compound?
A: −16.8 ± 1.3%

Q: What about the “LDL cholesterol level, difference from placebo” value (wk 24) of the same compound?
A: −13.7 percentage points

Q: What about the “LDL cholesterol level, least-squares mean percent change from baseline” value (wk 24) of the same compound?
A: −13.6% and −13.6 ± 1.7%

Q: And the “Lipoprotein(a) level, difference from placebo” value (wk 24)?
A: −29.5 percentage points

Q: What about the “Triglyceride level, difference from placebo” value (wk 24) of the same compound?
A: −20.1 percentage points

Q: And the “Lipoprotein(a) level, least-squares mean percent change from baseline” value (wk 24, baseline lipoprotein(a) >10 nmol per liter)?
A: −30.4 ± 3.8%

Q: What about the “Triglyceride level, least-squares mean percent change from baseline” value (wk 24, baseline triglyceride >150 mg per deciliter) of the same compound?
A: −22.7 ± 4.0%

Q: What about the “ApoB, LS mean % CFB” value (Week 24) of the same compound?
A: −16.8%

Q: And the “ApoB, LS mean % CFB difference from PBO” value (Week 24)?
A: −17.2%

Q: What about the “ApoCIII, Least Squares Mean % CFB” value (Week 24) of the same compound?
A: −10.6%

Q: And the “ApoCIII, Least Squares Mean % CFB Difference from PBO” value (Week 24)?
A: −18.7%

Q: And the “HDL-C, Least Squares Mean % CFB” value (Week 24)?
A: 2.7%

Q: And the “HDL-C, Least Squares Mean % CFB Difference from PBO” value (Week 24)?
A: 0.98%

Q: What about the “LDL-C, LS mean % CFB” value (Week 24) of the same compound?
A: −13.6%

Q: What about the “LDL-C, LS mean % CFB difference from PBO” value (Week 24) of the same compound?
A: −13.7%

Q: And the “Non-HDL-C, Least Squares Mean % CFB” value (Week 24)?
A: −15.2%

Q: And the “Non-HDL-C, Least Squares Mean % CFB Difference from PBO” value (Week 24)?
A: −15.4%

Q: And the “ApoB, Least Squares Mean % CFB” value (Week 24)?
A: −21.9%

Q: And the “ApoB, Least Squares Mean % CFB Difference from PBO” value (Week 24)?
A: −18.1%

Q: And the “LDL-C, Least Squares Mean % CFB” value (Week 24)?
A: −21.3%

Q: What about the “LDL-C, Least Squares Mean % CFB Difference from PBO” value (Week 24) of the same compound?
A: −15.4%

Q: What about the “ApoCIII, Least Squares Mean % CFB” value (Week 52) of the same compound?
A: −10.0%

Q: And the “ApoCIII, Least Squares Mean % CFB Difference from PBO” value (Week 52)?
A: −19.8%

Q: What about the “HDL particle size, Least Squares Mean % CFB” value (Week 52) of the same compound?
A: 0.90%

Q: And the “HDL particle size, Least Squares Mean % CFB Difference from PBO” value (Week 52)?
A: 0.60%

Q: What about the “HDL particles, Least Squares Mean % CFB” value (Week 52) of the same compound?
A: 5.2%

Q: What about the “HDL particles, Least Squares Mean % CFB Difference from PBO” value (Week 52) of the same compound?
A: 3.6%

Q: And the “HDL-C, Least Squares Mean % CFB” value (Week 52)?
A: 4.7%

Q: And the “HDL-C, Least Squares Mean % CFB Difference from PBO” value (Week 52)?
A: 2.1%

Q: What about the “LDL particle size, Least Squares Mean % CFB” value (Week 52) of the same compound?
A: −0.32%

Q: What about the “LDL particle size, Least Squares Mean % CFB Difference from PBO” value (Week 52) of the same compound?
A: −0.36%

Q: And the “LDL particles, Least Squares Mean % CFB” value (Week 52)?
A: −16.8%

Q: What about the “LDL particles, Least Squares Mean % CFB Difference from PBO” value (Week 52) of the same compound?
A: −16.1%

Q: And the “Large HDL particles, Least Squares Mean % CFB” value (Week 52)?
A: 12.3%

Q: What about the “Large HDL particles, Least Squares Mean % CFB Difference from PBO” value (Week 52) of the same compound?
A: 0.06%

Q: What about the “Large LDL particles, Least Squares Mean % CFB” value (Week 52) of the same compound?
A: 47.8%

Q: What about the “Large LDL particles, Least Squares Mean % CFB Difference from PBO” value (Week 52) of the same compound?
A: −38.6%

Q: What about the “Large VLDL and chylomicron particles, Least Squares Mean % CFB” value (Week 52) of the same compound?
A: −5.7%

Q: What about the “Large VLDL and chylomicron particles, Least Squares Mean % CFB Difference from PBO” value (Week 52) of the same compound?
A: −16.8%

Q: What about the “Medium HDL particles, Least Squares Mean % CFB” value (Week 52) of the same compound?
A: 88.2%

Q: What about the “Medium HDL particles, Least Squares Mean % CFB Difference from PBO” value (Week 52) of the same compound?
A: 23.1%

Q: And the “Medium VLDL particles, Least Squares Mean % CFB” value (Week 52)?
A: −18.7%

Q: What about the “Medium VLDL particles, Least Squares Mean % CFB Difference from PBO” value (Week 52) of the same compound?
A: −134.5%

Q: What about the “Non-HDL-C, Least Squares Mean % CFB” value (Week 52) of the same compound?
A: −15.7%

Q: And the “Non-HDL-C, Least Squares Mean % CFB Difference from PBO” value (Week 52)?
A: −15.3%

Q: What about the “Small LDL particles, Least Squares Mean % CFB” value (Week 52) of the same compound?
A: −3.3%

Q: What about the “Small LDL particles, Least Squares Mean % CFB Difference from PBO” value (Week 52) of the same compound?
A: −25.0%

Q: What about the “Small VLDL particles, Least Squares Mean % CFB” value (Week 52) of the same compound?
A: 62.9%

Q: What about the Small VLDL particles, Least Squares Mean % CFB Difference from PBO (Week 52) of the same compound?
A: -21.3%

Q: What about the “VLDL and chylomicron particles, Least Squares Mean % CFB” value (Week 52) of the same compound?
A: −11.2%

Q: What about the “VLDL and chylomicron particles, Least Squares Mean % CFB Difference from PBO” value (Week 52) of the same compound?
A: −19.4%

Q: And the “VLDL and chylomicron triglycerides, Least Squares Mean % CFB” value (Week 52)?
A: −14.7%

Q: What about the “VLDL and chylomicron triglycerides, Least Squares Mean % CFB Difference from PBO” value (Week 52) of the same compound?
A: −19.6%

Q: And the “VLDL particle size, Least Squares Mean % CFB” value (Week 52)?
A: 1.9%

Q: What about the “VLDL particle size, Least Squares Mean % CFB Difference from PBO” value (Week 52) of the same compound?
A: −0.05%

Q: What about the “ApoB, Least Squares Mean % CFB” value (Week 52) of the same compound?
A: −25.0%

Q: And the “ApoB, Least Squares Mean % CFB Difference from PBO” value (Week 52)?
A: −18.5%

Q: What about the “LDL-C, Least Squares Mean % CFB” value (Week 52) of the same compound?
A: −25.3%

Q: What about the “LDL-C, Least Squares Mean % CFB Difference from PBO” value (Week 52) of the same compound?
A: −15.7%

Q: What about the “Lp(a), LS mean % CFB” value (week 24) of the same compound?
A: 30.4%

Q: And the Lp(a), LS mean % CFB difference from PBO (week 24)?
A: -29.5%

Q: And the Triglycerides, LS mean % CFB (week 24)?
A: -22.7%

Q: What about the “Triglycerides, LS mean % CFB difference from PBO” value (week 24) of the same compound?
A: −20.1%

Q: What about the ApoB, LS mean % CFB (week 52) of the same compound?
A: -16.2%

Q: And the “ApoB, LS mean % CFB difference from PBO” value (week 52)?
A: −16.8%

Q: And the LDL-C, LS mean % CFB (week 52)?
A: -13.7%

Q: And the “LDL-C, LS mean % CFB difference from PBO” value (week 52)?
A: −13.3%

Q: What about the “Lp(a), LS mean % CFB” value (week 52) of the same compound?
A: −34.0%

Q: And the “Lp(a), LS mean % CFB difference from PBO” value (week 52)?
A: −29.5%

Q: And the “Triglycerides, LS mean % CFB” value (week 52)?
A: −22.5%

Q: And the “Triglycerides, LS mean % CFB difference from PBO” value (week 52)?
A: −19.0%
